{
  "source": "patent US20020128311A1",
  "about": "“Halocyanoacetamide antimicrobial compositions” (priority 2000, published 2002)",
  "key": {"[1]": {"experiment": "Stability of CMIT and DBNPA mixtures in GTA, stored at 50° C., HPLC", "format": "physicochemical", "details": "[…]% DBNPA, […]% CMIT/MIT mixture", "method": "Surfactants were TweenTM 20, TritonTM DF-12 or TritonTM CF-10. The compositions were stored at 50° C. for 4 weeks and the concentrations of active ingredients ([…]) in the compositions were determined by HPLC at the indicated time intervals."}, "[2]": {"experiment": "Stability of DCOIT and DBNPA mixtures in GTA, stored at 40° C., HPLC", "format": "physicochemical", "details": "4% DCOIT, […]% DBNPA", "method": "[…] […] Surfactants were TweenTM 20, TritonTM DF-12 or TritonTM CF-10. These compositions were stored at 40° C. for 6 weeks and the concentrations of active ingredients ([…]) in the compositions were determined by HPLC at the indicated time intervals."}, "[3]": {"experiment": "Freeze/thaw stability of DCOIT/DBNPA/surfactant/GTA compositions, HPLC", "format": "physicochemical", "details": "for % DCOIT retained after Freezing and Thawing: thawed at 25° C. 5 hours, three times", "method": "Samples were prepared to test the freeze/thaw stability of compositions of the present invention. The freeze/thaw test was conducted for compositions of […], surfactant and GTA prepared in Example 4. Samples (20 g each) were stored at -10° C. or -25° C. for 19 hours to be frozen; samples were then stored at 25° C. for 5 hours to be thawed. This sequence was repeated three times. Then the concentrations of active ingredients ([…]) in the compositions were determined by HPLC."}, "[4]": {"experiment": "Solubility in glyceryl triacetate", "details": "based on total amount of compound and solvent"}},
  "data": [
    {"smiles": "Cn1sc(Cl)cc1=O", "note": "[CMIT, 5-chloro-2-methyl-3-isothiazolone]", "values": [
      {"measurement": "% CMIT retained", "setting": "[1]; 5% Triton CF-10, 45% GTA, 0 Time", "value": 100, "unit": "%"},
      {"measurement": "% CMIT retained", "setting": "[1]; 5% Triton CF-10, 45% GTA, 1 Week", "value": 98, "unit": "%"},
      {"measurement": "% CMIT retained", "setting": "[1]; 5% Triton CF-10, 45% GTA, 2 Weeks", "value": 96, "unit": "%"},
      {"measurement": "% CMIT retained", "setting": "[1]; 5% Triton CF-10, 45% GTA, 3 Weeks", "value": 86, "unit": "%"},
      {"measurement": "% CMIT retained", "setting": "[1]; 5% Triton CF-10, 45% GTA, 4 Weeks", "value": 84, "unit": "%"},
      {"measurement": "% CMIT retained", "setting": "[1]; 5% Triton DF-12, 45% GTA, 0 Time", "value": 100, "unit": "%"},
      {"measurement": "% CMIT retained", "setting": "[1]; 5% Triton DF-12, 45% GTA, 1 Week", "value": 100, "unit": "%"},
      {"measurement": "% CMIT retained", "setting": "[1]; 5% Triton DF-12, 45% GTA, 2 Weeks", "value": 99, "unit": "%"},
      {"measurement": "% CMIT retained", "setting": "[1]; 5% Triton DF-12, 45% GTA, 3 Weeks", "value": 87, "unit": "%"},
      {"measurement": "% CMIT retained", "setting": "[1]; 5% Triton DF-12, 45% GTA, 4 Weeks", "value": 85, "unit": "%"},
      {"measurement": "% CMIT retained", "setting": "[1]; 5% Tween 20, 45% GTA, 0 Time", "value": 100, "unit": "%"},
      {"measurement": "% CMIT retained", "setting": "[1]; 5% Tween 20, 45% GTA, 1 Week", "value": 100, "unit": "%"},
      {"measurement": "% CMIT retained", "setting": "[1]; 5% Tween 20, 45% GTA, 2 Weeks", "value": 80, "unit": "%"},
      {"measurement": "% CMIT retained", "setting": "[1]; 5% Tween 20, 45% GTA, 3 Weeks", "value": 75, "unit": "%"},
      {"measurement": "% CMIT retained", "setting": "[1]; 5% Tween 20, 45% GTA, 4 Weeks", "value": 74, "unit": "%"},
      {"measurement": "% CMIT retained", "setting": "[1]; no surfactant, 50% GTA, 0 Time", "value": 100, "unit": "%"},
      {"measurement": "% CMIT retained", "setting": "[1]; no surfactant, 50% GTA, 1 Week", "value": 102, "unit": "%"},
      {"measurement": "% CMIT retained", "setting": "[1]; no surfactant, 50% GTA, 2 Weeks", "value": 97, "unit": "%"},
      {"measurement": "% CMIT retained", "setting": "[1]; no surfactant, 50% GTA, 3 Weeks", "value": 90, "unit": "%"},
      {"measurement": "% CMIT retained", "setting": "[1]; no surfactant, 50% GTA, 4 Weeks", "value": 88, "unit": "%"}
    ]},
    {"smiles": "CCCCCCCCn1sc(Cl)c(Cl)c1=O", "note": "[DCOIT]", "values": [
      {"measurement": "% DCOIT retained", "setting": "[2]; 5% Triton CF-10, 66% GTA, 4 Weeks", "value": 96.0, "unit": "%"},
      {"measurement": "% DCOIT retained", "setting": "[2]; 5% Triton CF-10, 66% GTA, 6 Weeks", "value": 95.6, "unit": "%"},
      {"measurement": "% DCOIT retained", "setting": "[2]; 5% Triton CF-10, 66% GTA, Time 0", "value": 100.0, "unit": "%"},
      {"measurement": "% DCOIT retained", "setting": "[2]; 5% Triton DF-12, 66% GTA, 4 Weeks", "value": 100.0, "unit": "%"},
      {"measurement": "% DCOIT retained", "setting": "[2]; 5% Triton DF-12, 66% GTA, 6 Weeks", "value": 98.2, "unit": "%"},
      {"measurement": "% DCOIT retained", "setting": "[2]; 5% Triton DF-12, 66% GTA, Time 0", "value": 100.0, "unit": "%"},
      {"measurement": "% DCOIT retained", "setting": "[2]; 5% Tween 20, 66% GTA, 4 Weeks", "value": 94.3, "unit": "%"},
      {"measurement": "% DCOIT retained", "setting": "[2]; 5% Tween 20, 66% GTA, 6 Weeks", "value": 94.0, "unit": "%"},
      {"measurement": "% DCOIT retained", "setting": "[2]; 5% Tween 20, 66% GTA, Time 0", "value": 100.0, "unit": "%"},
      {"measurement": "% DCOIT retained after Freezing and Thawing", "setting": "[3]; Example 4 composition with Triton CF-10, frozen at −10° C. 19 hours", "value": 100.0, "unit": "%"},
      {"measurement": "% DCOIT retained after Freezing and Thawing", "setting": "[3]; Example 4 composition with Triton CF-10, frozen at −25° C. 19 hours", "value": 100.0, "unit": "%"},
      {"measurement": "% DCOIT retained after Freezing and Thawing", "setting": "[3]; Example 4 composition with Triton DF-12, frozen at −10° C. 19 hours", "value": 100.0, "unit": "%"},
      {"measurement": "% DCOIT retained after Freezing and Thawing", "setting": "[3]; Example 4 composition with Triton DF-12, frozen at −25° C. 19 hours", "value": 100.0, "unit": "%"},
      {"measurement": "% DCOIT retained after Freezing and Thawing", "setting": "[3]; Example 4 composition with Tween 20, frozen at −10° C. 19 hours", "value": 100.0, "unit": "%"},
      {"measurement": "% DCOIT retained after Freezing and Thawing", "setting": "[3]; Example 4 composition with Tween 20, frozen at −25° C. 19 hours", "value": 100.0, "unit": "%"},
      {"measurement": "physical stability (appearance) during freeze/thaw cycling", "setting": "[3]; in GTA solutions in the presence of surfactants", "value": "clear solution, no precipitation or phase separation observed"},
      {"measurement": "solubility in glyceryl triacetate", "setting": "[4]; at 5° C.", "value": 8, "unit": "% by weight"},
      {"measurement": "solubility in glyceryl triacetate", "setting": "[4]; at 25° C.", "value": 8, "unit": "% by weight"},
      {"measurement": "solubility in glyceryl triacetate", "setting": "[4]; at 40° C.", "value": 20, "unit": "% by weight"}
    ]}
  ]
}
